Test results from PubChem BioAssay (NCI).
Where “and” joins values, the source holds several entries; their conditions need not be identical. Equal values may be shown once.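 Where inhibition never reached the appropriate level, the endpoint shown equals the highest concentration tested. Otherwise, values were interpolated linearly from a five-concentration, 48-hour dose response in 96-well plates. The concentration for 50% growth inhibition is given as GI50. TGI: total growth inhibition.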

Tests used:
Assay in all cases: DTP human tumour cell line panel, 48 h
A549 NSCLC = system: A549 NSCLC
BT-549 breast = system: BT-549 breast
HOP-92 NSCLC = system: HOP-92 NSCLC
HS 578T breast = system: HS 578T breast
NCI/ADR-RES ovarian = system: NCI/ADR-RES ovarian
SK-OV-3 ovarian = system: SK-OV-3 ovarian
SNB-75 CNS = system: SNB-75 CNS
SW-620 colon = system: SW-620 colon
U251 CNS = system: U251 CNS
EKVX NSCLC = system: EKVX NSCLC
M14 melanoma = system: M14 melanoma
MALME-3M melanoma = system: MALME-3M melanoma
RXF 393 renal = system: RXF 393 renal

| Structure (SMILES) | TGI (A549 NSCLC) | TGI (BT-549 breast) | TGI (HOP-92 NSCLC) | TGI (HS 578T breast) | TGI (NCI/ADR-RES ovarian) | TGI (SK-OV-3 ovarian) | TGI (SNB-75 CNS) | TGI (SW-620 colon) | TGI (U251 CNS) | TGI (EKVX NSCLC) | TGI (M14 melanoma) | TGI (MALME-3M melanoma) | TGI (RXF 393 renal) | GI50 (A549 NSCLC) | GI50 (HS 578T breast) | GI50 (MALME-3M melanoma) | GI50 (SW-620 colon) | GI50 (U251 CNS) |
| --- | --- | --- | --- | --- | --- | --- | --- | --- | --- | --- | --- | --- | --- | --- | --- | --- | --- | --- |
| COc1cc(C2(O)c3ccccc3C3=NCCN32)cc(OC)c1OC (configuration not stated) | > 100 µM | > 100 µM | > 100 µM | > 100 µM | > 100 µM | > 100 µM | > 100 µM | > 100 µM | > 100 µM |  |  |  |  |  |  |  |  |  |
| CC(C)c1ccc2[nH]c(O)c(C3=Nc4ccccc4C3=O)c2c1 | > 100 µM | 69.6 µM | 23.4 µM | 85.3 µM | > 100 µM | 30.2 µM | 9.36 µM | > 100 µM | 41.4 µM | 42.8 µM | > 100 µM | > 100 µM | 6.71 µM |  |  |  |  |  |
| COC(=O)C1(C)CCCC2(C)C3CCC4CC3(C=C4CO)CCC12 (configuration not stated) | > 100 µM | > 100 µM | > 100 µM | > 100 µM | 75.5 µM | > 100 µM | > 100 µM | > 100 µM | > 100 µM | > 100 µM | > 100 µM | > 100 µM | > 100 µM |  |  |  |  |  |
| N/C(COc1ccc(Cl)cc1)=N\NC(=O)c1ccncc1 | > 100 µM | > 100 µM | > 100 µM | > 100 µM | > 100 µM | > 100 µM | 85.2 µM | > 100 µM | > 100 µM | > 100 µM | > 100 µM | > 100 µM | > 100 µM |  |  |  |  |  |
| CC(C)CCCC(C)[C@H]1CC[C@H]2[C@@H]3CC[C@H]4C[C@@H](CCC=C(c5cc(Cl)c(O)c(C(=O)O)c5)c5cc(Cl)c(O)c(C(=O)O)c5)CC[C@]4(C)[C@H]3CC[C@]12C (some centres not stated) (tested in a mixture with another compound) | > 50 µM | > 50 µM | > 50 µM | > 50 µM | > 50 µM | > 50 µM | > 50 µM | > 50 µM | > 50 µM | > 50 µM | > 50 µM | > 50 µM | > 50 µM |  |  |  |  |  |
| C1=NCCNCCN=Cc2ccccc2OCc2cccc(n2)COc2ccccc21 | > 100 µM | 44.4 µM | > 100 µM | > 100 µM | 21.1 µM | > 100 µM | > 31.2 µM | > 75.9 µM | > 39.7 µM | > 100 µM | > 46.6 µM | > 80.7 µM | > 100 µM |  |  |  |  |  |
| C/C1=C\CC/C(C)=C/C=C(/C(C)C)CC/C(C(=O)O)=C/CC1 | > 100 µM | > 100 µM | > 100 µM | > 100 µM | > 100 µM | 98.2 µM | > 100 µM | > 100 µM | > 100 µM | > 100 µM | > 100 µM | > 100 µM | > 100 µM |  |  |  |  |  |
| CCN(CC)CCC(=O)c1ccc(Oc2ccccc2)cc1 | > 100 µM | 33.5 µM | 30.1 µM | 52.6 µM | 56.4 µM | > 100 µM | 52 µM | 31.3 µM | 32.3 µM | 41.4 µM | > 100 µM | 30.1 µM | 36.4 µM |  |  |  |  |  |
| C/C(=N\NC(=S)NNC(=S)N(C)c1ccccc1)c1ccccn1 | > 100 µM | > 100 µM | 26.6 µM | > 100 µM | 55.4 µM | > 83.8 µM | > 100 µM | > 100 µM | > 100 µM | 10.7 µM | 2.56 µM | 20.3 µM | 17 µM |  |  |  |  |  |
| COc1cccc(C[C@H]2COC(=O)[C@]2(O)Cc2cccc(OC)c2)c1 | > 100 µM | > 100 µM | > 100 µM | > 100 µM | > 100 µM | > 100 µM | > 100 µM | > 100 µM | > 100 µM | 81.6 µM | > 100 µM | > 100 µM |  |  |  |  |  |  |
| COC(=O)/C=C(/C(=O)OC)c1c(C)cc2c(C)cc(C)cc(C)c1-2 | > 84.5 µM | 47.1 µM | > 100 µM | 51.1 µM | > 64.6 µM | 99.5 µM | > 72.2 µM | > 100 µM | 25.5 µM | > 95.3 µM | 35.1 µM | > 65.5 µM | 49.2 µM |  |  |  |  |  |
| Cc1c(F)c(N)c2c(=O)cc(-c3ccc(NC(=O)[C@@H](N)CCCCN)c(F)c3)oc2c1F | 31 µM and 18.4 µM | 50.3 µM and 49.6 µM | 68.5 µM and 39.8 µM | 53.4 µM and 45.8 µM | 51.9 µM and 78.7 µM | 31.6 µM and 32.6 µM | 13.6 µM | 39 µM and 17.3 µM | 21.9 µM and 15.1 µM | 28.4 µM and 22.6 µM | 46 µM and 39.4 µM | 44.2 µM and 33.6 µM | 36.1 µM and 53.3 µM | 3.03 µM and 0.59 µM | 23.5 µM and 11.5 µM | 23.6 µM and 10 µM | 7.81 µM and 1.71 µM | 2.96 µM and 0.842 µM |
| COc1ccc2c(c1)CCCN1Cc3ccccc3CC21 (configuration not stated) | > 100 µM | > 100 µM | > 100 µM | > 100 µM | > 100 µM | > 100 µM | > 100 µM | > 100 µM | > 100 µM | > 100 µM | > 100 µM | > 100 µM | > 100 µM |  |  |  |  |  |
| COC(=O)/C(=C\c1cn(C(C)=O)c2ccccc12)P(=O)(OC)OC | 35.8 µM | 29.6 µM | 33.8 µM | > 100 µM | > 100 µM | 39.2 µM | 26.4 µM | 40.7 µM | 29.5 µM | 38 µM | 28.5 µM | 52 µM | 32.8 µM |  |  |  |  |  |
| Nc1cccc(C#Cc2cccc(C#Cc3cccc(N)n3)n2)n1 |  | > 100 µM | > 100 µM | > 100 µM | > 100 µM | > 100 µM | > 100 µM | > 100 µM | > 100 µM | > 100 µM | > 100 µM |  | > 100 µM |  |  |  |  |  |
| O=Cc1ccc(-c2cccc([N+](=O)[O-])c2)s1 | > 100 µM | > 100 µM | > 100 µM | > 100 µM | > 100 µM | > 100 µM | > 100 µM | > 100 µM | > 100 µM | > 100 µM | > 100 µM |  | > 100 µM |  |  |  |  |  |
| Fc1ccc(Nc2nnc(-c3ccccn3)s2)cc1 | > 100 µM | > 100 µM | > 100 µM | > 100 µM | > 100 µM | > 100 µM |  | > 100 µM | > 100 µM | > 100 µM | > 100 µM | > 100 µM | > 100 µM |  |  |  |  |  |
